Measured values reported in US6313170A, “L-threonate ferrous, as well as pharmaceutical composition and use for improving and treating human anemia thereof” (priority 1997, dated 2001).

Assays:
Hemolytic Anemia Model = experiment: Hemolytic anemia model (acetylphenylhydrazine), rats; assay type: in vivo, male Wistar rats; details: 8.64 mg Fe/kg (middle dosage / positive control)
Procedure: 1. […] All drugs were diluted by distilled water.
2. […] Animal diet also was purchased from Beijing Medical University.
(1) Hemolytic Anemia Model: Hemolytic anemia model was prepared for rats by injecting reagent of acetylphenylhydrazine (C8 H10 N2 O, produced by Beijing Biochemical Company) subcutaneously. The drug acetyphenylhydrazine was mixed with physiological saline to get its injection solution of 4% by weight of acetyphenylhydrazine. The solution was injected subcutaneously into each rat with a dosage of 57 μg/g at the beginning of the experiments. The content of blood hemochrome for each rat was examined at 2 days and 4 days later, respectively. When the mean blood hemochrome decreased to about 6.11±0.25 g %, rats were randomly divided into 6 groups of 18 rats each. […] The forth groups was positive drug control groups. The fifth group and the sixth group were designed as model group and normal control group, respectively.

Blood-loss Anemia Model = experiment: Blood-loss anemia model, rats; details: 8.64 mg Fe/kg (middle dosage / positive controls), n=10;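 note: male Wistar rats made anemic by repeated orbital bloodletting, kept on iron-low diet with deionized water while dosed, compared against untreated anemic model and normal-diet control groups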
Procedure: Ferrous gluconate, the positive control drug, yellow-green powder and 11% ferrous content, was purchased from Ganjian Pharmaceutical Company of Jianxi Province. Ferrous fumarate, 6.4% ferrous content, was purchased from the 18th Pharmaceutical Company of Shanghai. All drugs were diluted by distilled water.
7 groups were prepared as hemolytic anemia groups and one group was taken as normal control group supplemented with normal diet and water. The hemolytic anemia model was prepared by subjecting rats to inner canthus bloodletting of right eye through capillary glass tube. The first bloodletting content was 2.0 ml for each rat and in that time the range of hemochrome for rats was from 9.78 to 10.65 g %. Two days later, the second bloodletting (2 ml/rat) was carried out with the hemochrome values of 7.40-7.88 g %. The total bloodletting volume for each rat was 4 ml and was 32.9% in volume of the whole blood circulating the body.
While one hemolytic anemia group and one normal control group were taken as reference groups compared with other groups left. These two groups' rats were killed and the blood parameters were recorded. Other six groups now were randomly divided into three treatment groups of ferrous L-threonate with high, middle and low dosages respectively, two positive drugs control groups of ferrous gluconate and ferrous fumarate and one model group. At the end of 12 days and 18 days experimental periods, 5 and 10 rats of each group were killed correspondingly. During the course of experiment, the variations of hemochrome content were examined with 6 days interval.
While Element ferrous content 8.64 mg/kg as ferrous gluconate or ferrous fumarate was for positive drug control group. The groups for blood-loss anemia were provided iron-low diet and deionized water during the period of the administration of drugs, while the normal animal control group was provided normal diet and deionized water.

lymphoma cells = details: cited from earlier work
[1] = rat, in vivo, po, 2.5 mg/kg, 72 h
Procedure: Its chemical formula is Fe(C4 H7 O5)2.2H2 O, molecular weight:362.
Animals: Male Wistar rats were supplied by Experimental Animal Center, Tumor Institute of Heilongjian Province with body weight of 140 g-180 g. The iron-low diet contains iron 0.9 mg/kg.
50 rats were randomly divided into 5 groups of [19] 10 rats each. On this basis of administration of iron-low diet, each group of rats was administered respectively by gavage according to the dosage below:
High dosage group: Fe, 5 mg/kg, ferrous L-threonate, 32.32 mg/kg;
Middle dosage group: Fe, 2.5 mg/kg, ferrous L-threonate, 16.16 mg/kg;
Low dosage group: Fe, 1.0 mg/kg, ferrous L-threonate, 6.46 mg/kg;
Positive drug control group (ferrous sulfate): Fe, 2.5 mg/kg, ferrous sulfate, 12.43 mg/kg;
Negative drug control group (iron-low diet): Fe, 0.9 mg/kg (measured value).
After the end of 7 days feeding normal diet period, rats were supplemented with iron-low diet prepared according to AOAC formula for another 7 days. The 1-3 groups were treatment groups and supplemented with ferrous L-threonate 32.32 mg/kg (5 mgFe/kg, high dose group), 16.16 mg/kg (2.5 mg Fe/kg, middle dose group) and 6.46 mg/kg (1.0 mg Fe/kg, low dose group), respectively. The forth, positive drug control group, was provided with ferrous sulfate 12.43 mg/kg (2.5 mg Fe/kg). The fifth was model control group and was offered with iron-low diet (0.9 mg Fe/kg). Each groups were arranged to take drug one time by I.G (gavage) method per day and in the same time were supplemented with deionized water.
The test was sustained three days. Each rat's excrement was collected, dried at temperature 80-90° C., weighed and ground into 40-60 meshes. About 0.5 to 0.6 gram sample was taken and a mixture of nitric acid and perchloric acid at a ratio of 4:1 was added therein until completion of digestion. The constant volume is 10 ml. The iron content of excrement was determined by atomic absorption method and the iron absorptive rate for each rat can be calculated by the formula listed below. [formula]

IDA = details: in vivo; cited from earlier work

Ferrous gluconate [reference compound]
Iron content of whole blood (Hemolytic Anemia Model): 286.04 ± 26.797 µg/mL | Serum ferritin (SF) (Hemolytic Anemia Model): 20.14 ± 2.83 ng/mL | hemoglobin content (Hemolytic Anemia Model; after anemia (before treatment)): 6.57 g % | hemoglobin content (Hemolytic Anemia Model; before anemia (baseline)): 15.34 g % | hemoglobin content (Hemolytic Anemia Model; one week after treatment): 10.62 g % | hemoglobin content (Hemolytic Anemia Model; two weeks after treatment): 12.65 g % | Blood hemochrome content (Blood-loss Anemia Model; 6 days after treatment): 7.95 ± 0.30 | Blood hemochrome content (Blood-loss Anemia Model; 12 days after treatment): 10.50 ± 0.61 | GPC (blood granulophilocyte) (Blood-loss Anemia Model; 12 days): 12.66% | RBC (Blood-loss Anemia Model; 12 days): 4.488e+12 L⁻¹ | Blood hemochrome content (Blood-loss Anemia Model; 18 days after treatment): 11.80 ± 0.63 | GPC (blood granulophilocyte) (Blood-loss Anemia Model; 18 days): 9.04% | RBC (Blood-loss Anemia Model; 18 days): 5.14e+12 L⁻¹ | Blood hemochrome content (Blood-loss Anemia Model; before treatment): 7.50 ± 0.76

O=C([O-])/C=C/C(=O)[O-].[Fe+2] [Ferrous fumarate, reference compound]
Blood hemochrome content (Blood-loss Anemia Model; 6 days after treatment): 7.80 ± 0.24 | Blood hemochrome content (Blood-loss Anemia Model; 12 days after treatment): 10.12 ± 0.52 | GPC (blood granulophilocyte) (Blood-loss Anemia Model; 12 days): 12.66% | RBC (Blood-loss Anemia Model; 12 days): 4.2e+12 L⁻¹ | Blood hemochrome content (Blood-loss Anemia Model; 18 days after treatment): 11.84 ± 0.45 | GPC (blood granulophilocyte) (Blood-loss Anemia Model; 18 days): 9.04% | RBC (Blood-loss Anemia Model; 18 days): 5.14e+12 L⁻¹ | Blood hemochrome content (Blood-loss Anemia Model; before treatment): 7.43 ± 0.85

O=C(O)[C@H](O)[C@@H](O)CO [Calcium L-threonate]
uptake of vitamin C by the lymphoma cells (lymphoma cells): can improve uptake of vitamin C by the lymphoma cells

ferrous sulfate [reference compound]
Absorptivity [1]: 42.00 ± 1.02% | side effects (IDA): limited because of its side effects
